Assay results as given in ChEMBL document CHEMBL1201862, “PubChem BioAssay data set” (2004).
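Growth conditions: 96-well plates. Treatment: test compound, 48 hours, 5 concentrations. Analysis: linear interpolation between bracketing concentrations; unreached endpoints set to highest concentration. GI50 = concentration required for 50% inhibition of growth.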 The source made the active and inactive calls. Cut-off read from the data, not from the text of the source: active = GI50 up to about 1.1 µM and inactive = higher.

Columns and labels:
Experiment in all cases: NCI tumour cell line growth inhibition, 48 h
SF-268 = tested on: SF-268
CCRF-CEM = tested on: CCRF-CEM
HL-60 = tested on: HL-60
K562 = tested on: K562
KM12 = tested on: KM12
ACHN = tested on: ACHN
IGROV-1 = tested on: IGROV-1
HCT-15 = tested on: HCT-15
NCI-H460 = tested on: NCI-H460
DLD-1 = tested on: DLD-1
RPMI-8226 = tested on: RPMI-8226
OVCAR-8 = tested on: OVCAR-8
RXF 393 = tested on: RXF 393
CAKI-1 = tested on: CAKI-1
M14 = tested on: M14
SW-620 = tested on: SW-620
HOP-92 = tested on: HOP-92
NCI/ADR-RES = tested on: NCI/ADR-RES
SR = tested on: SR
MDA-MB-231 = tested on: MDA-MB-231

SMILES	GI50 (SF-268)	GI50 (CCRF-CEM)	GI50 (HL-60)	GI50 (K562)	GI50 (KM12)	GI50 (ACHN)	GI50 (IGROV-1)	GI50 (HCT-15) [µM]	GI50 (NCI-H460)	GI50 (DLD-1)	GI50 (RPMI-8226)	GI50 (OVCAR-8)	GI50 (RXF 393)	GI50 (CAKI-1)	GI50 (M14)	GI50 (SW-620)	GI50 (HOP-92)	GI50 (NCI/ADR-RES)	GI50 (SR)	GI50 (MDA-MB-231)
Oc1cccnc1/C=N/OCc1ccccc1	> 100 µM (inactive)	> 100 µM (inactive)	> 100 µM (inactive)	> 100 µM (inactive)	> 100 µM (inactive)	> 100 µM (inactive)	> 100 µM (inactive)	> 100	> 100 µM (inactive)	> 100 µM (inactive)	> 100 µM (inactive)	> 100 µM (inactive)	23.6 µM (inactive)	> 100 µM (inactive)	> 100 µM (inactive)	> 100 µM (inactive)				
COC1=CC(=O)C2C(C1=O)[C@@H]1c3ccccc3OC[C@H]21 (some centres not stated)	> 100 µM (inactive)	> 100 µM (inactive)	> 100 µM (inactive)	> 100 µM (inactive)	> 100 µM (inactive)	> 100 µM (inactive)		> 10	> 100 µM (inactive)	> 100 µM (inactive)	> 100 µM (inactive)	> 100 µM (inactive)	> 100 µM (inactive)	> 100 µM (inactive)	> 100 µM (inactive)	> 100 µM (inactive)	> 100 µM (inactive)			
O=C(CNc1nncs1)NO	> 100 µM (inactive)	> 10 µM (inactive)	> 100 µM (inactive)	> 100 µM (inactive)	> 100 µM (inactive)	> 100 µM (inactive)	> 100 µM (inactive)	> 100	> 100 µM (inactive)	> 100 µM (inactive)	> 100 µM (inactive)	> 100 µM (inactive)	> 100 µM (inactive)		> 100 µM (inactive)	> 100 µM (inactive)	38.2 µM (inactive)			
Cc1ccc(S(=O)(=O)NC2CCCCO2)cc1 (configuration not stated)	> 100 µM (inactive)	> 100 µM (inactive)		> 100 µM (inactive)	> 100 µM (inactive)	> 100 µM (inactive)	> 100 µM (inactive)	> 100	> 100 µM (inactive)	> 100 µM (inactive)	> 100 µM (inactive)	> 100 µM (inactive)	> 100 µM (inactive)	> 100 µM (inactive)	> 100 µM (inactive)	> 100 µM (inactive)	> 100 µM (inactive)			
CC1(C)CCCCCCCCCC(C)(CCCO)C1=O (configuration not stated)	18.2 µM (inactive)	28.9 µM (inactive)	19.7 µM (inactive)	24.6 µM (inactive)	18.4 µM (inactive)	17.9 µM (inactive)	17.4 µM (inactive)	17.8	18.4 µM (inactive)		26.5 µM (inactive)	18.4 µM (inactive)	19.7 µM (inactive)	17.7 µM (inactive)	14.3 µM (inactive)	19.7 µM (inactive)	14.5 µM (inactive)	16.6 µM (inactive)	35.2 µM (inactive)	15.2 µM (inactive)
COC(=O)[C@H](C)NC(=O)[C@H](NS(=O)(=O)c1nc2ccccc2s1)c1ccccc1	15.1 µM (inactive)	34.4 µM (inactive)	39.3 µM (inactive)	94.4 µM (inactive)	14 µM (inactive)	33.9 µM (inactive)	49.3 µM (inactive)	23.3	24.9 µM (inactive)		31 µM (inactive)	16.7 µM (inactive)	16.9 µM (inactive)	32.4 µM (inactive)	10.4 µM (inactive)	37.3 µM (inactive)	12.6 µM (inactive)	30.3 µM (inactive)	15.6 µM (inactive)	25.9 µM (inactive)
COC(=O)C1SC[C@H]2C(=O)N(c3ccccc3)C(=O)N12 (some centres not stated)	> 100 µM (inactive)	> 100 µM (inactive)	> 100 µM (inactive)	> 100 µM (inactive)	> 100 µM (inactive)	> 100 µM (inactive)	> 100 µM (inactive)	> 100	> 100 µM (inactive)		> 100 µM (inactive)	> 100 µM (inactive)	> 100 µM (inactive)	> 100 µM (inactive)	> 100 µM (inactive)	> 100 µM (inactive)	85.3 µM (inactive)	> 100 µM (inactive)	> 100 µM (inactive)	> 100 µM (inactive)
CN[C@H](C)[C@@H](OC)c1ccccc1		> 100 µM (inactive)	> 100 µM (inactive)	> 100 µM (inactive)	> 100 µM (inactive)	> 100 µM (inactive)	> 100 µM (inactive)	> 100	> 100 µM (inactive)	> 100 µM (inactive)	> 100 µM (inactive)	> 100 µM (inactive)	> 100 µM (inactive)	> 100 µM (inactive)	> 100 µM (inactive)	> 100 µM (inactive)	> 100 µM (inactive)			
